In patent US20170266192A1, “METHODS FOR IMPROVING DIAPHRAGM FUNCTION” (CYTOKINETICS, INC., priority 2012, published 2017):

Experiments:
rat diaphragm muscle [1] = assay: Diaphragm repeated contraction fatigue analysis; conditions: 5 uM and 10 uM, dose-dependent; 20 Hz stimulation, 10 minutes
Procedure: Diaphragm contractile force was measured by electrical field stimulation in an organ bath system (Radnoti) based on a standard operating protocol adapted from the Treat NMD website (http://www.treat-nmd.eu/downloads/file/sops/dmd/MDX/DMD M.1.2.002.pdf). The diaphragm and the last floating rib from SHAM and LAD rats were excised, rinsed in physiological saline, and placed in a temperature controlled water-jacketed chamber (26-27° C.) containing Krebs-Henseleit Buffer (118 mM NaCl, 10 mM glucose, 4.6 mM KCl, 1.2 mM KH2PO4, 1.2 mM MgSO4*7H2O, 24.8 mM NaHCO3, 2.5 mM CaCl2, 50 mg/L tubocurarine, 50 U/L insulin, pH:7.4) that was continuously aerated with 95% O2/[…]. After 10 minutes of equilibration, vertical strips spanning the floating rib to the central tendon were cut from diaphragms. Braided silk sutures were tied at the central tendon and floating rib and attached to a force transducer between two platinum electrodes. Diaphragm strips were set to a length that produced maximum twitch tension (Lo). […]
Following the procedure of Example 7, diaphragms were subjected to repeated electrical stimulations (20 Hz stimulation, 330 ms train duration, 1 train/sec) over a period of 10 minutes. Force production was measured over 600 contractions in rat diaphragm muscle ex vivo by field electrical stimulation in the presence and absence of Compound B (5 uM and 10 uM).

[2] = tested on: rat skinned diaphragm fibers; assay: Force-pCa skinned muscle fiber analysis; type: cell-based
Procedure: (§1) Muscle tissue for in vitro skinned fiber studies were prepared using a protocol based on Lynch and Faulkner (Am J Physiol 275:C1548-54 (1998)). Briefly, rat diaphragm or rabbit psoas muscles were rapidly dissected and rinsed with physiological saline. Muscles were then incubated in skinning solution (125 mM K-propionate, 20 mM imidazole, 5 mM EGTA, 2 mM MgCl2, 2 mM ATP, pH 7.0) supplemented with 0.5% Brij 58 (Sigma Chemicals, St. Louis, Mo.) or 0.5% Triton X-100 (Sigma Chemicals, St. Louis, Mo.) for 30 minutes at 4° C. Muscles were then placed in storage solution (125 mM K-propionate, 20 mM imidazole, 5 mM EGTA, 2 mM MgCl2, 2 mM ATP, glycerol 50%, pH 7.0) at −20° C. Muscles were incubated in storage solution at −20° C. for later use.
For skinned fiber analysis, single muscle fibers were dissected from larger segments of tissue in rigor buffer at 4° C. ([…], pH 7.0). They were then suspended between a 400 A force transducer (Aurora Scientific, Ontario, Canada) and a fixed post and secured with 2-4 μl of a 5% solution of methylcellulose in acetone. Fibers were then incubated at 10° C. in a relaxing buffer ([…], 1 mg/ml creatine kinase, 1 mM DTT, 44 ppm antifoam, pH 7.0) and baseline tension adjusted. Tension was generated in each fiber by changing fiber buffer over to relax buffer supplemented with 1 mM EGTA and one or more concentrations of aqueous calcium chloride. Test articles were added to these buffers in a 1% DMSO solution.
Force production was measured in rat skinned diaphragm fibers exposed to increasing concentrations of calcium in the presence and absence of the fast skeletal muscle troponin activator Compound B, (3-(2-(((trans)-3-fluoro-1-(3-fluoropyridin-2-yl)cyclobutyl)methylamino)pyrimidin-5-yl)benzamide), according to the procedure of Example 1.
Force production was measured in rat skinned diaphragm fibers exposed to increasing concentrations of calcium in the presence and absence of the fast skeletal muscle troponin activator Compound C, 1-(ethylpropyl)-6-ethynylimidazo[4,5-b]pyrazin-2-ol, according to the procedure in Example 1.

rat diaphragm muscle [3] = assay: Force-frequency relationship, ex vivo electrical field stimulation
Procedure: (§2) Diaphragm contractile force was measured by electrical field stimulation in an organ bath system (Radnoti) based on a standard operating protocol adapted from the Treat NMD website (http://www.treat-nmd.eu/downloads/file/sops/dmd/MDX/DMD M.1.2.002.pdf). The diaphragm and the last floating rib from SHAM and LAD rats were excised, rinsed in physiological saline, and placed in a temperature controlled water-jacketed chamber (26-27° C.) containing Krebs-Henseleit Buffer (118 mM NaCl, 10 mM glucose, 4.6 mM KCl, 1.2 mM KH2PO4, 1.2 mM MgSO4*7H2O, 24.8 mM NaHCO3, 2.5 mM CaCl2, 50 mg/L tubocurarine, 50 U/L insulin, pH:7.4) that was continuously aerated with 95% O2/[…]. After 10 minutes of equilibration, vertical strips spanning the floating rib to the central tendon were cut from diaphragms. Braided silk sutures were tied at the central tendon and floating rib and attached to a force transducer between two platinum electrodes. Diaphragm strips were set to a length that produced maximum twitch tension (Lo). The force-frequency profile of the muscle was obtained by stimulating the muscle at frequencies between 10-150 Hz (Grass Stimulator, 800 ms train duration, 0.6 ms pulse width).
Force production was measured in rat diaphragm muscle ex vivo by electrical field stimulation in the presence and absence of Compound B according to the procedure of Example 6. Compound B was suspended in DMSO and added directly to the bath.
Force production was measured in rat diaphragm muscle ex vivo by electrical field stimulation in the presence and absence of fast skeletal muscle troponin activator Compound D, 1-(2-(((trans)-3-fluoro-1-(3-fluoropyridin-2-yl)cyclobutyl)methylamino)pyrimidin-5-yl)-1H-pyrrole-3-carboxamide according to the procedure of Example 6. Compound D was suspended in DMSO and added directly to the bath.

SOD1 mice = assay: Unrestrained whole body plethysmography (UWBP); type: in vivo, mouse; conditions: 10 mg/kg
Procedure: Wild type (WT) and SOD1 mice were dosed with vehicle or 10 mg/kg Compound C and placed in plethysmography chambers for 30 minutes of acclimatization. After acclimatization, respiratory parameters, including tidal volume, respiratory rate, and minute ventilation, were monitored for 10 minutes at room air. Upon completion of baseline room air measurements, animals were exposed to a 5% CO2 gas mixture for 30 minutes. After the 5% CO2 exposure, animals were re-exposed to room air and monitored.

[4] = tested on: WT and SOD1 mouse diaphragm muscle; assay: Diaphragm force-frequency relationship in a mouse ALS model; conditions: frequencies up to 30 Hz; dose-dependent
Procedure: as §2, with “wild type (WT)” for “SHAM”, “SOD1 mice” for “LAD rats”, “width). Compound C was suspended in DMSO and directly added into the bath.” for “width).”

[5] = tested on: permeabilized single fibers from rat diaphragm muscle; assay: Skinned fiber tension at constant calcium, rat diaphragm; type: cell-based
Procedure: as §1
(§3) For skinned fiber analysis, single muscle fibers were dissected from larger segments of tissue in rigor buffer at 4° C. (20 μM MOPS, 5 μM MgCl2, 120 μM potassium acetate, 1 μM EGTA, pH 7.0). […]
(§4) The functional effects of the fast skeletal muscle troponin activator, Compound A (6-bromo-1-(ethylpropyl)imidazo[4,5-b]pyrazin-2-ol), on skeletal muscle force were assessed under isometric conditions in permeabilized single fibers from rabbit psoas muscle and rat diaphragm muscle according to the procedure of Example 1.

[6] = tested on: permeabilized single fibers from rabbit psoas muscle; assay: Skinned fiber tension at constant calcium, rabbit psoas; type: cell-based
Procedure: as §1, §3, §4

[7] = tested on: skinned diaphragm fibers from SHAM and LAD rats; assay: Force-pCa skinned muscle fiber analysis in a rat model of HF; type: cell-based; conditions: 3 μM
Procedure: as §1
For skinned fiber analysis, single muscle fibers were dissected from larger segments of tissue in rigor buffer at 4° C. (20 μM MOPS, 5 μM MgCl2, 120 μM potassium acetate, 1 μM EGTA, pH 7.0). They were then suspended between a 400 A force transducer (Aurora Scientific, Ontario, Canada) and a fixed post and secured with 2-4 μl of a 5% solution of methylcellulose in acetone. […]
Force production was measured in skinned diaphragm fibers from SHAM and LAD rats exposed to increasing concentrations of calcium in the presence and absence of Compound D according to the procedure of Example 1.

[8] = skinned fibers, constant calcium, 10 nM-40 μM
[9] = 30 μM, submaximal frequencies of electrical stimulation

## NC(=O)c1cccc(-c2cnc(NC[C@]3(c4ncccc4F)C[C@H](F)C3)nc2)c1 [Compound B, 3-(2-(((trans)-3-fluoro-1-(3-fluoropyridin-2-yl)cyclobutyl)methylamino)pyrimidin-5-yl)benzamide]
Rat diaphragm muscle [1]
  force production over 600 contractions compared to vehicle-only diaphragms: significantly more force
[2]; 0.5 uM compound, vehicle −5.43 ± 0.03
  pCa at 50% of Maximum Tension, Log [Ca^2+] (M): −5.78 ± 0.008 M
[2]; 1 uM compound, vehicle −5.43 ± 0.03
  pCa at 50% of Maximum Tension, Log [Ca^2+] (M): −5.90 ± 0.03 M
[2]; 10 μM Compound B
  increase in calcium sensitivity compared to vehicle-only muscle fibers: 10 fold
[2]; 10 uM compound, vehicle −5.43 ± 0.03
  pCa at 50% of Maximum Tension, Log [Ca^2+] (M): −6.46 ± 0.03 M
Rat diaphragm muscle [3]; frequencies up to 30 Hz of electrical stimulation
  force production compared to vehicle-only diaphragms: significantly more force

## C#Cc1cnc2nc(O)n(C(CC)CC)c2n1 [Compound C, 1-(ethylpropyl)-6-ethynylimidazo[4,5-b]pyrazin-2-ol]
SOD1 mice; after 30 minute exposure to 5% CO2
  tidal volume at recovery compared to vehicle-treated animals: significantly higher tidal volume
SOD1 mice; room air
  tidal volume at baseline compared to vehicle-treated animals: significantly higher tidal volume
[2]; 0.1 uM compound, vehicle −5.43 ± 0.054
  pCa at 50% of Maximum Tension, Log [Ca^2+] (M): −5.59 ± 0.007 M
[2]; 1 uM compound, vehicle −5.43 ± 0.054
  pCa at 50% of Maximum Tension, Log [Ca^2+] (M): −6.19 ± 0.018 M
[2]; 10 μM Compound C
  increase in calcium sensitivity compared to vehicle-only muscle fibers: 10 fold
[2]; 10 uM compound, vehicle −5.43 ± 0.054
  pCa at 50% of Maximum Tension, Log [Ca^2+] (M): −6.74 ± 0.28 M
[4]
  force production in SOD1 diaphragm muscle compared to vehicle-only: significantly more force
  force production in WT diaphragm muscle compared to vehicle-only: significantly more force

## CCC(CC)n1c(O)nc2ncc(Br)nc21 [Compound A, 6-bromo-1-(ethylpropyl)imidazo[4,5-b]pyrazin-2-ol]
[5]; rat diaphragm fibers, constant free calcium 3.16 μM (pCa=5.5), n=4, read-out: EC50, increase in skinned fiber tension
  EC50: 1200 nM
[5]; [8]
  tension in rat diaphragm muscle: increased tension
[6]; rabbit psoas fibers, constant free calcium 1.78 μM (pCa=5.75), n=3, read-out: EC50, increase in skinned fiber tension
  EC50: 590 nM
[6]; [8]
  tension in rabbit psoas muscle: increased tension

## NC(=O)c1ccn(-c2cnc(NCC3(c4ncccc4F)CC(F)C3)nc2)c1 (stereo not drawn) [Compound D, 1-(2-(((trans)-3-fluoro-1-(3-fluoropyridin-2-yl)cyclobutyl)methylamino)pyrimidin-5-yl)-1H-pyrrole-3-carboxamide]
[7]
  Ca^2+ sensitivity of HF diaphragm fibers: significantly increased Ca^2+ sensitivity
  Ca^2+ sensitivity of SHAM diaphragm fibers: significantly increased Ca^2+ sensitivity
Rat diaphragm muscle [3]; [9]
  force in HF (LAD) diaphragms: significantly increased force
  force in SHAM diaphragms: significantly increased force
